Experimental data reported in patent publication US8729048B2, “Methods and materials for assessing responsiveness to PARP inhibitors and platinating agents” (Mayo Foundation for Medical Education and Research, priority 2011, dated 2014).

Assays:
[1] = test system: parental M059J cells lacking DNA-PKcs; assay: Clonogenic assay, M059J; type: cell-based; details: BRCA1 shRNA
Protocol: FIG. 6. […] (A) BRCA1-deficient HCC1937 and BRCA1-reconstituted HCC1937/BRCA1 cells were continuously exposed to ABT-888 in the presence or absence of 125 nM DNA-PKi and assayed for clonogenic survival. Inset, Western blots of cell lysates from HCC1937 and HCC1937/BRCA1. (B) Western blots of M059J and reconstituted M059J+DNA-PKcs lines showing the restoration of DNA-PK expression and the shRNA-mediated knockdown of BRCA1. (C) Clonogenic survival of shRNA transfected M059J/M059J+DNA-PKcs lines treated with ABT-888 for 72 hours. (D) Clonogenic survival of ATM-deficient GM16666 or ATM-reconstituted GM16667 fibroblasts. Cells were exposed to ABT-888 for 48 hours in the presence or absence of 250 nM DNA-PKi, washed, and allowed to form colonies. Inset, Western blots of lysates from GM16666 and GM16667 fibroblasts. […] Results are representative of 3 independent experiments.
All siRNA oligonucleotides were purchased from Ambion, Inc. (Austin, Tex.). Sequences, with references, are provided below. PEO1 and PEO4 cells were transfected with 150 picomoles of siRNA using the HiPerfect lipid transfection reagent (Qiagen; Valencia, Calif.). […]
Colony formation assays were performed on siRNA-transfected PEO1 and PEO4 cells 48 hours after the second transfection. […] Colonies containing ≧50 cells were scored manually. […]

[2] = test system: phospho-H2AX and phospho-DNA-PKcs foci in HCC1937 cells; assay: Immunofluorescence / confocal foci in HCC1937 cells; type: cell-based
Protocol: FIG. 15. Upon PARP inhibition, HCC1937 cells form phospho-H2AX foci that colocalize to regions of activated DNA-PK. (A) Quantitation of cells positive for phospho-H2AX foci in HCC1937 and HCC1937/BRCA1 cells, following treatment with 0.2% DMSO, 250 nM DNA-PKi, 20 μM ABT-888 (ABT), ABT-888 and DNA-PKi, 50 μM etoposide (Etop), or 5 Gy ionizing radiation (IR). Cells were exposed to ABT-888 and/or DNA-PKi for 72 hours, etoposide for 1 hour, or allowed to recover 1 hour post-IR. Results are reported as mean±SEM of 3 independent experiments. (B) Confocal microscopy after staining with antibodies to phospho-H2AX (Ser^139) and phospho-DNA PKcs (Thr^2609) as in FIG. 2D. HCC1937 cells are shown on the left, and reconstituted HCC1937/BRCA1 cells on the right.
Immunofluorescence studies were performed as described elsewhere (Segovis et al., J. Immunol., 182:6933-6942 (2009)) with several modifications. […]
Coverslips were then washed three times with PBS and incubated for 1 h with Alexa Fluor 488- and/or 568-conjugated secondary antibody (Invitrogen) diluted 1:1000. […] Phospho-H2AX positive cells (defined as having >10 foci/cell) were counted on a Zeiss Axioplan microscope. […] Quantitation and image processing were performed using the Zeiss Zen software package and Adobe Photoshop CS3.

Row | SMILES | clonogenic sensitivity to ABT-888 after BRCA1 knockdown [1] | effect on ABT-888 induced colocalization of phospho-Thr2609-DNA-PK and phospho-Ser139-H2AX in foci [2] | effect on formation of H2AX foci ([2]; 250 nM DNA-PKi with 20 μM ABT-888, 72 hours)
1 | C[C@]1(c2nc3c(C(N)=O)cccc3[nH]2)CCCN1 [ABT-888] | not sensitized |  | 
2 | CCN1CCN(CC(=O)Nc2ccc(-c3cccc4c(=O)cc(N5CCOCC5)oc34)c3sc4ccccc4c23)CC1 [AZ 12594248] |  | inhibited ABT-888 induced colocalization | diminished formation of H2AX foci
